Records with an inconclusive call do not appear. The source made the active and inactive calls. How the calls were made is not given here.
What follows are molecules tested on EBV lymphoblastoid cells (LCL) viability, plate reader (assay: LCL viability reduction – cell-based, plate reader, cherry-picks, set 2, cytotoxicity control, dose response (AID 504882)).
In the case of `COc1ccc(-c2ccc(NC(=O)c3ccco3)cc2)nn1`, the AC50 is reported as 4.42 µM. For `S=C(NCCCN1CCOCC1)N1CCN(c2nc(-c3ccc(Cl)cc3)cs2)CC1`, the AC50 was 12.9 µM. With `CCn1c2ccccc2c2cc(/C=C(/C#N)C(N)=S)ccc21` the AC50 was 0.998 µM. `CC(=NNC(=S)Nc1ccccc1Cl)c1ccccn1` gave an AC50 of 0.055 µM. For `COc1ccc(OCc2cccc(C(=O)NN)c2)cc1`, the AC50 was > 19.5 µM (inactive). `Cc1cc(Sc2nnc(N)s2)c2ccccc2n1` showed an AC50 of 16.8 µM. In the case of `C/C(=N/NC(=O)c1ccc(C(C)(C)C)cc1)c1ccccn1`, the AC50 is reported as 1.05 µM. Molecule `CCCCC(=O)NC(c1ccc(Cl)cc1Cl)c1ccc2cccnc2c1O` (stereo not drawn) has an AC50 of 2.55 µM. With `O=C(c1cccc(F)c1)N1CCN(c2cccc(Cl)c2)CC1` the AC50 was 3.11 µM. With `CCN(CC)CCC(=O)N1C/C(=C/c2ccccc2)C(=O)/C(=C\c2ccccc2)C1` the AC50 was 1.36 µM. In the case of `O=C(N/N=C/c1ccc(O)cc1O)c1ccc(CN2C(=O)c3cccc4cccc2c34)cc1`, the AC50 is reported as 3.53 µM. For `Cc1ccc2[nH]c3c(c2c1)CCCC3NC(=O)CCl` (stereo not drawn), the AC50 was 1.41 µM. For `Cc1sc2ncnc(N/N=C/c3ccccc3O)c2c1C`, the AC50 was 3.59 µM.
